Where “and” joins values, the source holds several entries; their conditions need not be identical. Equal values may be shown once. Entries after “also recorded” stand apart in the source; their conditions may differ.
How the values were obtained:
[1] = 9-month oral toxicity study in dogs; assay type: in vivo; conditions: dog
Procedure: (§1) The updated exposure margins considering the highest maximum exposures in rats and dogs are calculated as follows: • Maximum exposure in the rat (male) was in the 14-day IV study and at the 300 mg/kg dose, the AUClast is 1070 μg*hr/mL. • Maximum exposure in dogs occurred at the 300 mg/kg dose in the 9-month oral toxicity study and the AUClast is 1310*μg·hr/mL.

aged mice [2] = conditions: aged mice (24-month-old) vs age-matched controls, cited from earlier work
[3] = tested on: healthy older adult humans; assay: BGE-105 in immobilized human muscles, 10 days bed rest (Example 11); assay type: in vivo; conditions: 200 mg of BGE-105 a day
Text: Two groups of healthy older adult humans (e.g., n=10 per group) who are moderately active remain in bed continuously for 10 days, except for toileting, and they consume a eucaloric diet providing the recommended dietary allowance for protein (0.8 g/kg of protein per day). […] Measurements before and after bed rest include muscle function and protein synthesis.

[4] = tested on: Diet-Induced Obese (DIO) mice; assay: Pilot study of BGE-105 in aged DIO mice treated with semaglutide (Example 1); assay type: in vivo
Text: Endpoints and measurements used to assess effects included: • Body Weight, Clinical Evaluation & Body Condition Score; • Group Food Intake, Water Intake; • Fed Glucose; • Body composition by Echo-MRI; • Baseline and endpoint grid hang tests; and • Endpoint tissue harvest.
25-month-old (aged) C57BL/6 female mice were used in this study. Diet for 25-month-old C57BL/6 mice included lean control D12450B (10 kcal % fat), or a diet induced-obesity (DIO) diet D12492 (60 kcal % fat) (Research Diets, Inc.). The study duration was 37 days. Treatment started on Day 0 and ended on Day 35-36.
Semaglutide was purchased from MCE (Cat No. HY-114118/CS-0069903)
Mice from all Groups (1-5) were measured with fed glucose, and body weight and body composition for randomization.
Body weight, group food intake, group water intake, body composition and grid hang tests were measured and monitored during the study.
On the day of necropsy, blood plasma and tissue samples were collected.

[5] = tested on: immortalized muscle precursor cells from human patients; conditions: cited from earlier work
aged mice [6] = conditions: aged mice (18-month-old) first injected with a cardiotoxin; cited from earlier work
[7] = tested on: healthy volunteers aged≥65 years; assay: Phase 1b Part B (MD) 10-day bed rest muscle atrophy study; assay type: in vivo, human
Procedure: In Part B, of the 30 subjects enrolled, all of which are ≥65 years of age. […] In the multi-dose cohorts (1A, 1B, 1C), PD parameters for effects on changes in insulin sensitivity and muscle indices during a period of bed rest are measured and evaluated to better inform decisions regarding choice of dose and direction of further development.
In each of the 3 cohorts in Part B, 30 total subjects are enrolled to receive treatment in either Cohort 1A, Cohort 1B, or Cohort 1C. Cohort 1A includes 10 subjects who all receive placebo NS over a 1 hour infusion for 10 days on Days 1 through Day 10. […] Patients are at bed rest for the entire 10-day duration of treatment.
Vital signs was collected daily and include diastolic and systolic blood pressure and pulse. On Days −1, 1, 5, and 10, vital signs was collected at the following timepoints: predose (additionally temperature and respiratory rate), 0.25 h, 0.5 h, 0.75 h, 1 h, 2 h, 3 h, 4 h, 6 h, 8 h, and 12 h after the start of study drug infusion. Vital signs will also be collected on Day 10 (23 h) and before discharge on Day 12. • D. Safety laboratory tests include complete blood count, clinical chemistries, and urinalysis. • E. Samples are to be collected in the morning. Subjects are to be fasting from 10:00 PM onward (min 8 hours fast) each night but may drink as much water as requested. • F. ECGs are to be taken predose and immediately following the completion of the 1-hour infusion. On Day 11, an ECG will also be taken again 23 h after the start of the Day 10 study drug infusion. • G. AEs was recorded from the start time of the first consumption of heavy water until the end of the subject's participation in the study. At discharge from the unit, any ongoing AEs was documented in source and in EDC was followed until the event is resolved or stabilized. […] On Days 1, 5, and 10, PK samples were collected at the following timepoints: predose, 0.25 h, 0.5 h, 0.75 h, 1 h, 2 h, 3 h, 4 h, 6 h, 8 h, and 12 h after the start of study drug infusion. Samples will also be collected 24 h (Day 11), 48 h (Day 12), 72 h (Day 13), and 96 h (Day 14) after the start of the last infusion. PK samples were taken from the opposite arm used for the IV infusion. • J. Continuous cardiac ECG telemetry monitoring was used starting on Day 1 pre-dose and continuing through the end of dosing on Day 10. • K. Subjects were asked to remain in their beds, apart from using a wheelchair to be taken to the shower and they will shower seated. They will also use a wheelchair to get to and from the bathroom. When not in bed, subjects were in a wheelchair. • L. Subjects will wear the pneumatic compression cuffs the entire duration of bed rest, except for when in a wheelchair to use the bathroom and shower. • M. Muscle circumference, cross-sectional area, color flow analysis, AP diameter, and echo density of the vastus lateralis and gastrocnemius were measured by ultrasound. Ultrasound imaging must be conducted by the same technician throughout the study for all subjects. […]

[8] = 14-day IV toxicity study in the rat; assay type: in vivo
Procedure: as §1

immobilized aged mice = immobilized aged mice (20-months-old), orally dosed, vs control vehicle; cited from earlier work
[9] = 10-day bed rest, BGE-105 240 mg daily (cohort MD 1B)
[10] = 10-day bed rest, BGE-105 240 mg daily (cohort MD 1B), vastus lateralis ultrasound
[11] = 10 days of bed rest, ultrasound
[12] = BGE-105 240 mg once daily IV for 10 days vs placebo

## COc1cccc(OC)c1-n1c(NS(=O)(=O)[C@@H](C)[C@H](C)c2ncc(C)cn2)nnc1-c1cncc(C)c1 [BGE-105, (2S,3R)—N-(4-(2,6-dimethoxyphenyl)-5-(5-methyl-3-pyridinyl)-4H-1,2,4-triazol-3-yl)-3-(5-methyl-2-pyrimidinyl)-2-butanesulfonamide]
[1]
  NOAEL: maximum dose tested
Aged mice [2]; p=0.00228
  Voluntary motor activity: statistically significant increase in voluntary motor activity
Aged mice [2]; p=0.04
  Grip strength: statistically significant improvement in grip strength
[3]
  Muscle atrophy in immobilized human muscles: prevent or attenuate muscle atrophy
[4]; semaglutide 100 nmol/kg, BGE-105 1.1 mg/mL, combination compared to either agent alone
  Muscle function, grid hang test (latency before mice fell from the grid): increased muscle function
[4]; semaglutide 100 nmol/kg, BGE-105 1.1 mg/mL, combination loss statistically significant
  Weight of perigonadal fat at study endpoint: statistically insignificant loss in perigonadal fat
[4]; semaglutide 100 nmol/kg, BGE-105 1.1 mg/mL, vs DIO control mice
  Quadriceps weight as a percentage of total body weight at study endpoint: increased quadricep weight as a percentage of total body weight, but the increases did not achieve statistical significance
[4]; vs DIO control mice
  neutrophil gelatinase-associated lipocalin (NGAL) level at study endpoint: decreased plasma NGAL level
[5]
  Cell growth and differentiation: dose-dependent relationship between cell growth and differentiation, and concentration of BGE-105
Aged mice [6]
  mRNA transcripts indicative of muscle regeneration: significantly higher levels of several mRNA transcripts which are indicative of muscle regeneration
[7]; [9]
  Muscle grade (progression), % change: baseline to D10: −9%
  Thigh circumference, % change: baseline to D10: +0.8%
[7]; 10-day bed rest, BGE-105 240 mg daily (cohort MD 1B), biopsy
  Cumulative protein synthesis, % change: baseline to D10: 22%
[7]; [10]
  AP diameter (thickness), % change: baseline to D10: −8.0%
  Cross-sectional area (CSA), % change: baseline to D10: −5.7%
[7]; 10-day bed rest, ultrasound echo density, placebo 8 of 10
  Muscle quality grade worsened (grade 1 to grade 2), number of volunteers: 1 of 11 and 1 out of 11 and (1 out of 11)
[7]; 10 days bed rest, D2O method and muscle biopsy
  Synthesis of myofibrillar structural proteins such as myosin and troponin: preserved compared to placebo
[7]; 10 days of bed rest, bed rest-induced decrease, vs placebo
  Muscle protein synthesis, muscle microbiopsy of vastus lateralis: significantly ameliorated; also recorded: elevated rate of muscle protein synthesis
[7]; 10 days of bed rest, n=11
  Improvement in thigh circumference relative to placebo: 100%
[7]; [11]
  Improvement in vastus lateralis cross-sectional area relative to placebo: 58%
  Improvement in vastus lateralis thickness relative to placebo: 73%
[7]; [12]
  Reduction in loss of vastus lateralis cross-sectional area: > 50%
  Reduction in loss of vastus lateralis muscle thickness: 75%
[7]; BGE-105 treated patients with elevated rate, after 10 days of bed rest
  Mean normalized fraction synthetic rate: 0.18-2.2
[7]; Cohort 1B vs Cohort 1A
  Improvement in muscle dimension (muscle size by ultrasound): ~75%
[7]; Day 10 through Day 60 (post-bedrest), vs placebo
  Physical activity, step ratio by wearable activity device: increase in physical activity; also recorded: more pronounced in the BGE-105 group
[7]; after 10-day bed rest, mean percent change from baseline, placebo 19.47%
  Reduction of the cross-sectional area of the Vastus Lateralis: 8.041%
[7]; after 10-day bed rest, mean percent change from baseline, placebo 21.18%
  Reduction of vastus lateralis diameter: 5.664%
[7]; after 10 days of bed rest, placebo 3 out of 10
  Patients with elevated rate of muscle protein synthesis: 8 out of 11
[7]; after 10 days of bed rest, placebo 30%
  Patients with elevated rate of muscle protein synthesis: about 72.7%
[7]; after the 10-day bed rest period, placebo 6.438% reduction
  Increase in thigh circumference: 0.8%
[7]; treatment group (Cohort 1B, 240 mg daily), placebo 6.4% decrease
  Echo density measurements, increase: 0.8%
[8]
  NOAEL: maximum dose tested
Immobilized aged mice
  Muscle atrophy: significantly reduced muscle atrophy
